In the assay the target is T1, G-actin (pyrene-labeled) (Oryctolagus cuniculus, UniProt P68135).
T1 construct: purchased Cytoskeleton, Inc., Colorado
The assay is described as follows: In vitro polymerization of pyrene-labeled G-actin. The class given is biochemical. To be noted: buffer G with 1 mM MgCl2; conjugate 50 μg/ml, phalloidin 4 μM. On the procedure: In vitro polymerization of G-actin was performed according to the method of Maul and coworkers (Maul et al., 2003).
This in vitro assay is based on the enhanced fluorescence of pyrene-conjugated actin that occurs during polymerization in vitro.
For conducting the polymerization assay, general actin buffer containing pyrene actin and ATP was added to the wells. Then polymerization buffer, samples (P34 free peptide, P33 free peptide, P34BSA and P33BSA), and phalloidin (as positive control) were added to the wells. Then fluorescence intensity was read with a spectrophotometer (Excitation: 360 nm; Emission: 410 nm). The reading was done for 15 minutes with intervals of 30 seconds.
For the assay to determine inhibition of polymerization, all the wells contained polymerization buffer to initiate polymerization. […]
As mentioned above, in vitro polymerization of G-actin was performed according to the method of Maul and coworkers (Maul et al., 2003). […] 5 μl samples were applied on a microscope slide, and examined by fluorescence microscopy.
P34BSA was tested for the capacity to inhibit or induce actin polymerization. […] The fluorescence intensity of the mixture was read with a microplate fluorescence reader (FL600, Bio-Tek®; Ex. 360 nm, +/−20 nm bandwidth; Em. 410 nm, +/−10 nm bandwidth). The emissions were recorded for 15 min at 30 sec intervals. […]

The values that follow come from patent US7659366B2, “Peptide with putative role in cytoskeletal protection” (priority 2005, dated 2010).

Numbered stars: 1 amine (or outer) side, 2 acyl side, 3 side chain; on linkers, the order of the positions; unused ones are H or OH. Bridge positions count the residues as written; N and C are the ends. Square brackets hold non-standard residues; d marks the D form. Peptide text beside a SMILES is read from it. Trp(2-yl) = O=C([C@H](Cc1c([*:3])[nH]c2ccccc12)N[*:1])[*:2]; Leu(4R-OH,5-OH) = C[C@](O)(CO)C[C@H](N)C(=O)O; cisHyp = O=C(O)[C@@H]1C[C@H](O)CN1

Take `C[C@@H]1NC(=O)[C@H](C[C@@](C)(O)CO)NC(=O)[C@@H]2Cc3c([nH]c4ccccc34)SC[C@H](NC(=O)[C@@H]([C@H](C)O)NC1=O)C(=O)N1C[C@@H](O)C[C@H]1C(=O)N[C@@H](C)C(=O)N2` [phalloidin] (cyclo(A[dT]C[cisHyp]A[Trp(2-yl)][Leu(4R-OH,5-OH)]); thioether 3-6): the “induction of actin polymerization” value is on record as “able to promote polymerization”.
